The values that follow come from paper PMC5663706, “Diversity oriented biosynthesis via accelerated evolution of modular gene clusters” (Nature Communications, 2017).

The target of one assay is FKBP12 (Homo sapiens, UniProt P62942). In words: FKBP12 PPIase inhibition assay. The format is biochemical. Conditions: 10 °C, pH 8.0, 6 nM FKBP12, 60 µM SUC-ALPF-pNA, read-out: FKBP12 K i.
Another assay concerns Saccharomyces cerevisiae. In words: Saccharomyces cerevisiae MIC assay (microdilution). It is filed as cell-based. Conditions: RPMI 1640 broth, 37 °C, 24 h, read-out: S. cerevisiae MIC. The protocol:
We additionally assessed the rapalogs for antifungal activity using a standard Saccharomyces cerevisiae MIC assay. As expected, activity was similar to that observed for the mTORC1 pathway assay, likely through inhibition of TOR1 and TOR2.
Minimum Inhibitory Concentration (MIC) values for each compound were determined using the microdilution method. Briefly, stock solutions of the 6 test rapalogs (6.4 mg mL^−1 in methanol) were diluted 1:50 in RPMI 1640 broth (Sigma-Aldrich) to a working concentration of 128 µg ml^−1, and serially diluted in broth (1:2) in sterile, polypropylene 96-well plates, 100 µL per well. Saccharomyces cerevisiae was cultured in RPMI 1640 broth, 37 °C, 250 r.p.m., 18 h. […] A volume of 100 µL aliquots of this dilution were added to each well and mixed by gentle trituration. Plates were incubated at 37 °C for 24 h. The concentration of compound at which no visible growth was apparent was determined to be the MIC.
(Dilution methods test growth across graded concentrations, often in twofold steps.)

Assay [1] concerns mTORC1 pathway (p-S6 formation).
In assay [2] the test system is human macrophages challenged with B. pseudomallei. The format is cell-based.

Chain of FKBP12 (P62942 whole entry, species assumed): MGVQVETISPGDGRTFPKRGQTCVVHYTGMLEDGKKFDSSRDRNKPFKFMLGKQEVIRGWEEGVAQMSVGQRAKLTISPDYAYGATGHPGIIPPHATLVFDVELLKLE

On to `COC1CC2CCC(C)C(O)(O2)C(=O)C(=O)N2CCCCC2C(=O)OC(C(C)CC2CCC(O)CC2)CC(=O)C(C)C=C(C)C(O)C(OC)C(=O)C(C)CC(C)C=CC=CC=C1C` (stereo not shown) [Compound 1, 39-desmethoxyrapamycin], for which, on FKBP12, the Ki came to 2.5 nM. The minimal inhibitory concentration (MIC) with Saccharomyces cerevisiae was below 0.25 µg/mL.

Take `COC(CC1CCC(C)C(O)(CC(=O)N2CCCCC2C(=O)O)O1)C(C)=CC=CC=CC(C)CC1CCC(O)CC1` (stereo not shown) [Compound 2]: the Ki at FKBP12 is above 1000 nM. In addition, the MIC in the assay with Saccharomyces cerevisiae is above 64 µg/mL. Moreover, the IC50 in assay [1] was 1000 nM.

On to `C\C1=C/C=C/C=C/[C@@H](C)C[C@@H](C)C(=O)[C@H]2CC[C@@H](CC2)OC(=O)[C@@H]2CCCCN2C(=O)C(=O)[C@]2(O)O[C@@H](CC[C@H]2C)C[C@@H]1O` [Compound 3], for which the Ki at FKBP12 was 460 nM. Besides, in the assay with Saccharomyces cerevisiae, the minimal inhibitory concentration (MIC) is above 64 µg/mL. For the same compound, in assay [1], the half-inhibitory concentration (IC50) was above 1900 nM.

Turning to `COC1CC2CCC(C)C(O)(CC(=O)N3CCCCC3C(=O)OC(C(C)CC3CCC(O)CC3)CC(=O)C(C)CC(C)C=CC=CC=C1C)O2` (stereo not shown) [Compound 5], at FKBP12, the Ki was 370 nM. For the same compound, the minimal inhibitory concentration (MIC) in the assay with Saccharomyces cerevisiae was below 64 µg/mL. This compound yielded an IC50 in assay [1] of 300 nM.

Take `COC1CC2CCC(C)C(O)(O2)C(=O)C(=O)N2CCCCC2C(=O)OC(C(C)CC2CCC(O)CC2)CC=C(C)C(O)CC(=O)C(C)CC(C)C=CC=CC=C1C` (stereo not shown) [Compound 7]: the Ki on FKBP12 worked out at 7.9 nM. Further, in the assay with Saccharomyces cerevisiae, the MIC is below 2 µg/mL. Besides, the “survival of human macrophages challenged with B. pseudomallei” value in assay [2] is recorded as “increase the survival”. In assay [1], this compound registered a half-maximal inhibitory concentration (IC50) of 100 nM.

With `CO[C@H]1C[C@@H]2CC[C@@H](C)[C@@](O)(O2)C(=O)C(=O)N2CCCC[C@H]2C(=O)O[C@H]([C@H](C)C[C@H]2CC[C@H](O)CC2)CC(O)CC(=O)[C@H](C)/C=C(\C)[C@@H](O)CC(=O)[C@H](C)C[C@H](C)/C=C/C=C/C=C/1C` (stereo partly shown) [Compound 8], the Ki on FKBP12 stood at 6.5 nM. In the assay on Saccharomyces cerevisiae, the MIC is below 2 µg/mL.

Take `CO[C@H]1C[C@@H]2CC[C@@H](C)[C@@](O)(O2)C(=O)C(=O)N2CCCC[C@H]2C(=O)O[C@H]([C@H](C)C[C@@H]2CC[C@@H](O)[C@H](OC)C2)CC(=O)[C@H](C)/C=C(\C)[C@@H](O)[C@@H](OC)C(=O)[C@H](C)C[C@H](C)/C=C/C=C/C=C/1C` [Rapamycin, reference compound]: in the assay with Saccharomyces cerevisiae, the minimum inhibitory concentration (MIC) is below 0.25 µg/mL. Besides, in assay [1], the IC50 was below 1 nM.

Usually MIC stands for the least concentration at which growth counts as inhibited. The term IC50 denotes the concentration that gives 50% inhibition. The low end stands for greater potency, the high end for weaker potency.
